According to patent publication US7994190B2, “Modulators of glucocorticoid receptor, AP-1, and/or NF-κB activity and use thereof” (Bristol-Myers Squibb Company, priority 2006, dated 2011):

Experiments:
[1] = biological target: T1, human glucocorticoid receptor (Homo sapiens, UniProt P04150); assay: Glucocorticoid Receptor Binding Assay (fluorescence polarization competitor kit); conditions: purified human recombinant full-length GR 2 nM, 1 nM Fluormone GS Red, 2 h room temperature
T1 construct: purified human recombinant full-length glucocorticoid receptor (2 nM); purchased Invitrogen Part #2893
T1 sequence (P04150 1-777): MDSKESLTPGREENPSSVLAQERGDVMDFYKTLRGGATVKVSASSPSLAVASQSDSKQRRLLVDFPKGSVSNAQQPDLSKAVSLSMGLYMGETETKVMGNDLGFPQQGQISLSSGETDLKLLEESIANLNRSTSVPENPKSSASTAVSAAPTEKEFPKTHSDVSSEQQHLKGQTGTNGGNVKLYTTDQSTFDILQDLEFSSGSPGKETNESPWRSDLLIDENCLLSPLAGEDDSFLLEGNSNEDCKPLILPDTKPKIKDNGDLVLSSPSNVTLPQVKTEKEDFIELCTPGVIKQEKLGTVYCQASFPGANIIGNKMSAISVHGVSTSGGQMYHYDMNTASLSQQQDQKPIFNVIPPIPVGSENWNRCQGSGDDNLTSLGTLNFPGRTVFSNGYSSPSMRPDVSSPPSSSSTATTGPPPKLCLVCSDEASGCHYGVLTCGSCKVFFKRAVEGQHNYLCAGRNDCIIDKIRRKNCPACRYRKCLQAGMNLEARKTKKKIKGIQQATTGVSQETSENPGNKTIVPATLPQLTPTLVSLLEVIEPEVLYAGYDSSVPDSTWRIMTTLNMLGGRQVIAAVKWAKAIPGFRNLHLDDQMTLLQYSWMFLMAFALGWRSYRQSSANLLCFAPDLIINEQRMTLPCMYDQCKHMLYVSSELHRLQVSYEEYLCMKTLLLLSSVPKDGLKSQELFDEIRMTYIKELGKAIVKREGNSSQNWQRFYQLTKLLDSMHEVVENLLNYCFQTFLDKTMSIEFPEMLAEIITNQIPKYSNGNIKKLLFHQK
Experimental: Glucocorticoid Receptor Binding Assay
In order to assess the affinity of test compounds for the human glucocorticoid receptor, a commercially available kit was used (Glucocorticoid Receptor Competitor Assay Kit, Invitrogen Part #2893). Briefly, purified human recombinant full-length glucocorticoid receptor (2 nM) was mixed with fluorescently labeled glucocorticoid (1 nM Fluormone GS Red) in the presence or absence of test compound. After two hour incubation at room temperature in the dark, the fluorescence polarization (FP) of the samples was measured. […] Test compounds were analyzed in the concentration range from 8.5E-05 μM to 5 μM.

[2] = tested on: AP-1; assay: Cellular Transrepressional Assay (AP-1 luciferase reporter in A549 cells); type: cell-based; conditions: A549 cell stably transfected with pAP-1-Luc, 10 ng/ml PMA, 7 hours; for AP-1 Max % inh (Cellular Transrepression Assay): maximum inhibition; for EC50: read-out: AP-1 EC50, nM (Cellular Transrepression Assay)
Experimental: Cellular Transrepressional Assay
To measure the ability of test molecules to inhibit AP-1 induced transcriptional activity, an A549 cell was utilized which was stably transfected with a plasmid containing 7×AP-1 DNA binding sites (pAP-1-Luc plasmid, Stratagene Co. La Jolla, Calif.) followed by the gene for luciferase. Cells were activated with 10 ng/ml of […] (PMA) plus or minus test molecules for 7 hours. After 7 hours a luciferase reagent was added to measure luciferase enzymatic activity in the cell. After a 10 minute incubation of luciferase reagent with cells, luminescence was measured in a TopCount luminescence counter. Repression of AP-1 activity was calculated as the percentage decrease in the signal induced by PMA alone. Test molecules were analyzed in the concentration range from 0.1 nM to 40 μM. EC50s were determined by using standard curve fitting methods such as Excel fit (Microsoft Co.).

| SMILES | Ki [1] [nM] | AP-1 Max % inh (Cellular Transrepression Assay) [2] [%] | EC50 [2] [nM] |
| --- | --- | --- | --- |
| CC(C)(C(=O)Nc1nccs1)C(c1ccccc1)c1ccn2cncc2c1 (stereo not shown) [Example 12] | 17.7 | – | – |
| CC(C)(C(=O)Nc1nccs1)C(c1ccccc1)c1ccc2c(-c3ccc(F)cc3F)ncn2c1 (stereo not shown) [Example 18] | – | 55.81 | 13 |
| CC(C)(CNC(=O)C(F)(F)F)C(c1ccccc1)c1ccn2c(-c3ccccc3)ncc2c1 (stereo not shown) [Example 2, N-(2,2-Dimethyl-3-phenyl-3-(3-phenylH-imidazo[1,5-a]pyridin-7-yl)propyl)-2,2,2-trifluoroacetamide] | 16.5 | – | – |
| CC(C)(C(=O)NC1CC1)C(c1ccccc1)c1ccn2c(-c3ccccc3)ncc2c1 (stereo not shown) [Example 10] | 7.3 | – | – |
| CC(C)(C(=O)Nc1nccs1)C(c1ccccc1)c1ccc2c(-c3ccc(F)c(Cl)c3)ncn2c1 (stereo not shown) [Example 20] | 65.9 | – | – |
| CC(C)(C(=O)Nc1nccs1)C(c1ccccc1)c1ccc2cncn2c1 (stereo not shown) [Example 4, 3-(H-Imidazo[1,5-a]pyridin-6-yl)-2,2-dimethyl-3-phenyl-N-(thiazol-2-yl)propanamide] | 13 | – | – |
| CC(C)(C(=O)Nc1nncs1)C(c1ccccc1)c1ccc2c(-c3cccc(CO)c3)ncn2c1 (stereo not shown) [Example 22] | 12.2 | – | – |
| CC(C)(C(=O)Nc1nncs1)C(c1ccccc1)c1ccc2nncn2c1 (stereo not shown) [Example 24] | 327 | – | – |
| CC(C)(C(=O)Nc1nccs1)C(c1ccccc1)c1ccc2nncn2c1 (stereo not shown) [Example 8, 3-([1,2,4]-Triazolo[4,3-a]pyridin-6-yl)-2,2-dimethyl-3-phenyl-N-(thiazol-2-yl)propanamide] | 169 | – | – |
| CC(C)(C(=O)Nc1nncs1)C(c1ccccc1)c1ccc2cncn2c1 (stereo not shown) [Example 13] | 19.5 | – | – |
| Cc1cscc1-c1ncn2cc(C(c3ccccc3)C(C)(C)C(=O)Nc3nncs3)ccc12 (stereo not shown) [Example 23] | 36 | – | – |
| Cc1nnc2ccc(C(c3ccccc3)C(C)(C)C(=O)Nc3nncs3)cn12 (stereo not shown) [Example 26] | 5450 | – | – |
| CC(C)(C(=O)Nc1nncs1)C(c1ccccc1)c1ccn2cncc2c1 (stereo not shown) [Example 11] | 27.1 | – | – |
| CC(C)(C(=O)Nc1nccs1)C(c1ccccc1)c1ccc2c(-c3cccc(C#N)c3)ncn2c1 (stereo not shown) [Example 7, 3-(1-(3-Cyanophenyl)H-imidazo[1,5-a]pyridin-6-yl)-2,2-dimethyl-3-phenyl-N-(thiazol-2-yl)propanamide] | 17 | – | – |
| CC(C)(C(=O)Nc1nccs1)C(c1ccccc1)c1ccc2c(-c3ccc(F)cc3)ncn2c1 (stereo not shown) [Example 5, 3-(1-(4-Fluorophenyl)H-imidazo[1,5-a]pyridin-6-yl)-2,2-dimethyl-3-phenyl-N-(thiazol-2-yl)propanamide] | – | 71.08 | 34.1 |
| CCOC(=O)NCC(C)(C)C(c1ccccc1)c1ccn2c(-c3ccccc3)ncc2c1 (stereo not shown) [Example 3, Ethyl 2,2-dimethyl-3-phenyl-3-(3-phenylH-imidazo[1,5-a]pyridin-7-yl)propylcarbamate] | 27.4 | – | – |
| CC(C)(C(=O)Nc1nccs1)C(c1ccccc1)c1ccc2c(-c3ccc(C#N)cc3)ncn2c1 (stereo not shown) [Example 16] | 26.2 | – | – |
| CC(C)(C(=O)Nc1nncs1)C(c1ccccc1)c1ccn2c(-c3ccccc3)ncc2c1 (stereo not shown) [Example 1, 2,2-Dimethyl-3-phenyl-3-(3-phenylH-imidazo[1,5-a]pyridin-7-yl)-N-(1,3,4-thiadiazol-2-yl)propanamide] | – | 63.58 | 112 |
| CC(C)(C(=O)Nc1nncs1)C(c1ccccc1)c1ccc2c(-c3cccc(C#N)c3)ncn2c1 (stereo not shown) [Example 15] | 22.6 | – | – |
| Cc1nnc2ccc(C(c3ccccc3)C(C)(C)C(=O)Nc3nccs3)cn12 (stereo not shown) [Example 25] | 2360 | – | – |
| CC(C)(C(=O)Nc1nncs1)C(c1ccccc1)c1ccc2c(-c3ccc(F)cc3F)ncn2c1 (stereo not shown) [Example 19] | – | 45.65 | 16 |
| CC(C)(C(=O)Nc1nccs1)C(c1ccccc1)c1ccc2c(Br)ncn2c1 (stereo not shown) [Example 6, 3-(1-BromoH-imidazo[1,5-a]pyridin-6-yl)-2,2-dimethyl-3-phenyl-N-(thiazol-2-yl)propanamide] | 30.2 | – | – |
| CC(C)(C(=O)Nc1nncs1)C(c1ccccc1)c1ccc2c(-c3ccc(F)c(Cl)c3)ncn2c1 (stereo not shown) [Example 21] | 46.6 | – | – |
| CC(C)(C(=O)Nc1nncs1)C(c1ccccc1)c1ccc2c(-c3ccc(F)cc3)ncn2c1 (stereo not shown) [Example 14] | – | 55.80 | 43.6 |
| CC(C)(C(=O)Nc1nccs1)C(c1ccccc1)c1ccn2c(-c3ccccc3)ncc2c1 (stereo not shown) [Example 9] | – | 67.35 | 10.1 |
